Source: US20060079696A1, “Substituted compounds derived from N-(benzyl)phenylacetamide, preparation and uses” (GENFIT, priority 2004, published 2006)

Tests used:
Format in all cases: cell-based
[1] = target: T1, hPPARα (Homo sapiens, UniProt Q07869); test: Gal4-hPPARα chimera transactivation in COS-7 cells (luciferase); conditions: induction factor standardised to an internal reference, read-out: % hGal4-PPAR transactivation (10 μM) alpha
T1 construct: fragments of DNA amplified by PCR corresponding to the DEF domains of the human PPARα, PPARγ PPARδ nuclear receptors; expressed in transfected cells; host or cells: COS-7 (monkey kidney fibroblast line)
T1 sequence (Q07869 239-466 limits assumed): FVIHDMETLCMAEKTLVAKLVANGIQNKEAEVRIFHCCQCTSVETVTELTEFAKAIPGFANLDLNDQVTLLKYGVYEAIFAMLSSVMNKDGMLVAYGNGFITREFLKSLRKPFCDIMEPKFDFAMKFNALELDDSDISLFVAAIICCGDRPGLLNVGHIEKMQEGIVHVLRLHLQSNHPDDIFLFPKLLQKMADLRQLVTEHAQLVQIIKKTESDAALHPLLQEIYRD
Experimental: (§1) The PPAR activation was evaluated in vitro on a monkey kidney fibroblast line (COS-7) by measuring the transcriptional activity of chimeras constituted of the DNA binding domain of the Gal4 transcription factor of yeast and of the binding domain to the ligand of the different PPARs. The compounds were tested at doses between 0.01 and 100 μM on Gal4-PPARα, γ, δ chimeras. The induction factor (ratio between the luminescence induced by the compound and the luminescence induced by the control) was measured for each condition: the higher this factor, the more the compound has PPAR-activating properties.
(§2) The COS-7 cells from ATCC were cultivated in a DMEM medium supplemented with 10% (vol/vol) of foetal calf serum, 100 U/ml penicillin (Gibco, Paisley, UK) and 2 mM L-Glutamine (Gibco, Paisley, UK). The cells were incubated at 37° C. in a humid atmosphere containing 5% CO2.
(§3) The Gal4(RE)_TkpGL3, pGal4-hPPARα, pGal4-hPPARγ, pGal4-hPPARδ and pGal4-φ plasmids have been described in the literature (Raspe, Madsen et al. 1999). The pGal4-hPPARα, pGal4-hPPARγ and pGal4-hPPARδ constructs were obtained by cloning in the pGal4-φ vector of fragments of DNA amplified by PCR corresponding to the DEF domains of the human PPARα, PPARγ PPARδ nuclear receptors.
(§4) COS-7 cells were plated in 96 wells plates (5×10^4 cells/well) and transfected, in the presence of 10% foetal calf serum and 150 ng DNA per well, with a pGal4-PPAR/Gal4(RE)_TkpGL3 ratio of 1/10. The cells were then incubated for 24 hours with the compounds to be tested, without serum. At the end of the experiment, the cells were lysed and the luciferase activities were determined by means of Steady Glow Luciferase (Promega) according to the supplier's recommendations.
(§5) The inventive compounds were tested at 10 μM on the 3 PPAR isoforms. The results obtained are detailed in table (1). The transactivation measured is expressed as a response ratio versus an internal reference for each of the isoforms.
(§6) The compounds were tested at 10 μM on the Gal4-PPARα, γ, δ chimeras. The induction factor, i.e. the ratio between the luminescence induced by the compound and the luminescence induced by the control, was measured for each condition. It was then standardised in comparison to an internal reference and the results were then expressed in percentages : the higher the activation percentage, the more the compound has PPAR-activating properties.

[2] = target: T2, hPPARγ (Homo sapiens, UniProt P37231); test: Gal4-hPPARγ chimera transactivation in COS-7 cells (luciferase); conditions: induction factor standardised to an internal reference, read-out: % hGal4-PPAR transactivation (10 μM) gamma
T2 construct: fragments of DNA amplified by PCR corresponding to the DEF domains of the human PPARα, PPARγ PPARδ nuclear receptors; expressed in transfected cells; host or cells: COS-7 (monkey kidney fibroblast line)
T2 sequence (P37231 238-503 limits assumed): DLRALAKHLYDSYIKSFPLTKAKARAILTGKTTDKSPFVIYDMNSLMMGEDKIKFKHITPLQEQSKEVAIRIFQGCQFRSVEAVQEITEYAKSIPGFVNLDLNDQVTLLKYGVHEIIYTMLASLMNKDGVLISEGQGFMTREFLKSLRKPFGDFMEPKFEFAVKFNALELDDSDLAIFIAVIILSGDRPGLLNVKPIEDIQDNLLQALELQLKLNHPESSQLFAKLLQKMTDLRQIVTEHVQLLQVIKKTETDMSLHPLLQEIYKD
Experimental: as §1, §2, §3, §4, §5, §6

[3] = target: T3, hPPARδ (Homo sapiens, UniProt Q03181); test: Gal4-hPPARδ chimera transactivation in COS-7 cells (luciferase); conditions: induction factor standardised to an internal reference, read-out: % hGal4-PPAR transactivation (10 μM) delta
T3 construct: fragments of DNA amplified by PCR corresponding to the DEF domains of the human PPARα, PPARγ PPARδ nuclear receptors; expressed in transfected cells; host or cells: COS-7 (monkey kidney fibroblast line)
T3 sequence (Q03181 211-439 limits assumed): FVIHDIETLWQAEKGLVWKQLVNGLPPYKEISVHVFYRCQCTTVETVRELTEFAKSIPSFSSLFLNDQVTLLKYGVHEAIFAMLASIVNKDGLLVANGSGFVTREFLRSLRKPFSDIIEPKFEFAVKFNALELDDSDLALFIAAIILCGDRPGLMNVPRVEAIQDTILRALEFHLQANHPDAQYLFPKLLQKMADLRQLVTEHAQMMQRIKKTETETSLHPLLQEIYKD
Experimental: as §1, §2, §3, §4, §5, §6

| activation at 10 µM [1] [%] | activation at 10 µM [2] [%] | activation at 10 µM [3] [%] | SMILES |
| --- | --- | --- | --- |
| 32 | < 10 | < 10 | CCCCC(NC(=O)Cc1ccc(OCC(C)(C)C(=O)O)cc1)c1ccccc1N1CCCCC1 (stereo not drawn) [Compound 42, 3-[4-[1-(1-(2-(1-piperidinyl)phenyl)pentyl)aminocarbonylmethyl]phenoxy]-2,2-dimethylpropanoic acid] |
| < 10 | 42 | < 10 | CC(NC(=O)Cc1ccc(OC(C)(C)C(=O)O)cc1)c1ccccc1N1CCCCCC1 (stereo not drawn) [Compound 15, 2-[4-[1-(1-(2-(1-hexamethyleneimino)phenyl)ethyl)aminocarbonylmethyl]phenoxy]-2-methylpropanoic acid] |
| < 10 | 27 | < 10 | CC(NC(=O)Cc1ccc(OC(C)(C)C(=O)O)cc1)c1ccccc1N1CCCCC1 (stereo not drawn) [Compound 2, 2-[4-[1-(1-(2-(1-piperidinyl)phenyl)ethyl)aminocarbonylmethyl]phenoxy]-2-methylpropanoic acid] |
| 40 | < 10 | < 10 | CCCC(NC(=O)Cc1ccc(OC(C)(C)C(=O)NS(C)(=O)=O)cc1)c1ccccc1N1CCCCC1 (stereo not drawn) [Compound 66, N-[methylsulfonyl]-2-[4-[1-(1-(2-(1-piperidinyl)phenyl)butyl)aminocarbonylmethyl]phenoxy]-2-methylpropanamide] |

Further lines, the compound ahead of its results:

| SMILES | activation at 10 µM [1] [%] | activation at 10 µM [2] [%] | activation at 10 µM [3] [%] |
| --- | --- | --- | --- |
| CCCCC(NC(=O)Cc1ccc(OC(C)(C)C(=O)O)cc1)c1ccc(CCc2ccccc2)cc1N1CCCCC1 (stereo not drawn) [Compound 50, 2-[4-[1-(1-(2-(1-piperidinyl)-4-(phenethyl)phenyl)pentyl)aminocarbonylmethyl]phenoxy]-2-methylpropanoic acid] | < 10 | < 10 | 11 |
| COc1ccc(CC(NC(=O)Cc2ccc(OC(C)(C)C(=O)O)cc2)c2ccccc2N2CCCCC2)cc1 (stereo not drawn) [Compound 48, 2-[4-[1-(2-(4-methoxyphenyl)-1-(2-(1-piperidinyl)phenyl)ethyl)aminocarbonylmethyl]phenoxy]-2-methylpropanoic acid] | < 10 | 17 | < 10 |
| CCCCC(NC(=O)Cc1ccc(OC(C)(C)C(=O)O)cc1)c1ccccc1OCC(C)C (stereo not drawn) [Compound 68, 2-[4-[1-(1-(2-(isobutyloxy)phenyl)pentyl)aminocarbonylmethyl]phenoxy]-2-methylpropanoic acid] | < 10 | 37 | < 10 |
| CC(C)CC(NC(=O)Cc1ccc(OCCCCOc2ccc(OC(C)(C)C(=O)O)cc2)cc1)c1ccccc1N1CCCCC1 (stereo not drawn) [Compound 40, 2-{4-{4-[4-[1-(3-methyl-1-(2-(1-piperidinyl)phenyl)butyl)aminocarbonylmethyl]phenoxy]butoxy}phenoxy}-2-methylpropanoic acid] | 20 | 55 | < 10 |
| Cc1cc(CC(=O)NC(CC(C)C)c2ccccc2N2CCCCC2)cc(C)c1OC(C)(C)C(=O)O (stereo not drawn) [Compound 11, 2-[2,6-dimethyl-4-[1-(3-methyl-1-(2-(1-piperidinyl)phenyl)butyl)aminocarbonylmethyl]phenoxy]-2-methylpropanoic acid] | < 10 | 47 | < 10 |
| CCCCCCC(NC(=O)Cc1ccc(OC(C)(C)C(=O)O)cc1)c1ccccc1N1CCCCC1 (stereo not drawn) [Compound 5, 2-[4-[1-(1-(2-(1-piperidinyl)phenyl)heptyl)aminocarbonylmethyl]phenoxy]-2-methylpropanoic acid] | 31 | 82 | < 10 |
| CCCCC(NC(=O)Cc1ccc(OC(C)(C)C(=O)NS(C)(=O)=O)cc1)c1ccccc1OC (stereo not drawn) [Compound 67, N-[methylsulfonyl]-2-[4-[1-(1-(2-(methoxy)phenyl)pentyl)aminocarbonylmethyl]phenoxy]-2-methylpropanamide] | < 10 | < 10 | < 10 |
